The structures appear in SMILES notation. The source made the active and inactive calls. No cut-off for these calls is given here.

Holding throughout (type): cell-based
Assay [1] deals with T1, 5-hydroxytryptamine receptor 3A (Homo sapiens) (UniProt P46098).
T1 sequence (whole entry): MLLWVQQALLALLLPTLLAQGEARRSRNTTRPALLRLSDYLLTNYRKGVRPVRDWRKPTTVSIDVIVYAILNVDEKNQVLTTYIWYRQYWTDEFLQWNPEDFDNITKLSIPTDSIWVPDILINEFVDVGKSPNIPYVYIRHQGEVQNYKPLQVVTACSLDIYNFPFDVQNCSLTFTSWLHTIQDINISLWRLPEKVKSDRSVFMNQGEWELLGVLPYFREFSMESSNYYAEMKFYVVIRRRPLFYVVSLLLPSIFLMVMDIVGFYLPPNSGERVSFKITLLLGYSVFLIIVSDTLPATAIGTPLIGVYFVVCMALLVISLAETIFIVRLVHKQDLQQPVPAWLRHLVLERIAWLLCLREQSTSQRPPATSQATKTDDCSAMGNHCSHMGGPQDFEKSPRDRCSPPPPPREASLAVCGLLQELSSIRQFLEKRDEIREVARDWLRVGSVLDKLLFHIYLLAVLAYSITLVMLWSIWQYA
Briefly: Binding affinity to human 5HT3A expressed in COS7 cells at 100 nM after 1 hr by fluorescence microscopy. Particulars: COS-7.

For assay [2], the target named is T1, 5-hydroxytryptamine receptor 3A (Homo sapiens). In words: Binding affinity to human 5HT3A expressed in COS7 cells at 100 nM after 1 hr by fluorescence microscopy in presence of 10 uM ondansetron. The following applies: COS-7.
Assay [3] concerns the target T2, 5-hydroxytryptamine receptor 3A (Homo sapiens, UniProt P46098).
T2 sequence (P46098 whole entry): T1 sequence (whole entry)
Briefly: Displacement of [3H]granisetron from human 5HT3A expressed in HEK293 cells after 1 hr by scintillation counting. (In general: Loss of bound radioactivity is the signal in a displacement assay; it reports binding, not function.)

As to `CN1[C@@H]2CCC[C@H]1C[C@H](NC(=O)c1nn(CCCCNC(=S)Nc3ccc(-c4c5ccc(=O)cc-5oc5cc(O)ccc45)c(C(=O)O)c3)c3ccccc13)C2`, the result in assay [1] was Active. In addition, in assay [2], the result was inactive. For the compound `CN(C)c1cccc2c(S(=O)(=O)NCCCn3nc(C(=O)N[C@H]4C[C@H]5CCC[C@@H](C4)N5C)c4ccccc43)cccc12`, the result in assay [1] was inactive. Take `CN1[C@@H]2CCC[C@H]1C[C@H](NC(=O)c1nn(CCCCNc3ccc([N+](=O)[O-])c4nonc34)c3ccccc13)C2`: the Ki entry in assay [3] was “Not Active”. Regarding `CCN(CC)c1ccc2cc(C(=O)NCCCCn3nc(C(=O)N[C@@H]4C[C@H]5CCC[C@@H](C4)N5C)c4ccccc43)c(=O)oc2c1`, in assay [1], the outcome was inactive. Still for that read-out and setting: the same measure for `CCN(CC)c1ccc2cc(C(=O)NCCOc3cccc4c(C(=O)N[C@@H]5C[C@H]6CCC[C@@H](C5)N6C)nn(C)c34)c(=O)oc2c1`: “inactive”. For `CN1[C@@H]2CCC[C@H]1C[C@H](NC(=O)c1nn(CCCNC(=S)Nc3ccc(-c4c5ccc(=O)cc-5oc5cc(O)ccc45)c(C(=O)O)c3)c3ccccc13)C2`, in assay [1], the result was Active. For the same compound, the result in assay [2] was inactive. Take `CC1=CC(C)=[N+]2C1=C(CCCOC(=O)CCCn1nc(C(=O)N[C@@H]3C[C@H]4CCC[C@@H](C3)N4C)c3ccccc31)c1c(C)cc(C)n1[B-]2(F)F`: the result in assay [1] and in assay [2] was Active. For the compound `CN1[C@@H]2CCC[C@H]1C[C@H](NC(=O)c1nn(CCCNc3ccc([N+](=O)[O-])c4nonc34)c3ccccc13)C2`, in assay [1], the outcome was inactive.

The record behind these values is ChEMBL document CHEMBL1944572, “High-affinity fluorescent ligands for the 5-HT(3) receptor” (Bioorg Med Chem Lett, 2012).
